# Data: patent US20110257436A1, “PROCESS FOR THE MANUFACTURE OF EASILY DISPERSIBLE, SOLID N'-HYDROXY-N-CYCLOHEXYL-DIAZENIUM OXIDE SALTS” (BASF SE, priority 2008, published 2011)
# Assays:
# [1] = cited from earlier work
# [2] = particle size distribution analysis (volume distribution) by laser diffraction of aqueous dispersion; assay type: physicochemical
# Source text: The D10, D50 and D90 represent the median or the 10th, 50th, and the 90th percentile of the particle size distribution (volume distribution), respectively. That is, the D50 (D10/D90) is a value on the distribution such that 50% (10%/90%) of the particles have a particle size of this value or less. The volume averaged particle size distribution may be measured with an aqueous dispersion of the M^n+(HDO)n by techniques known to the skilled artisan, e.g. by laser diffraction techniques.
# Furthermore, a particle size distribution analysis (volume distribution) was performed using a conventional laser diffraction apparatus (Mastersizer® 2000, Fa. Malvern Instruments). For the measurement, 1 g of Cu(HDO)2 was dispersed in 100 ml of water sample and 1 ml of a solution (1% by weight) of a nonionic surfactant (polyethylene glycole p-(1,1,3,3-tetramethylbutyl)-phenyl ether, around 9-10 ethylene oxide groups). […]
# [3] = dispersion time 1 min, 1 g in 100 ml water with nonionic surfactant
Structure (SMILES),solubility in water [1],D10 value ([2]; after 10 min dispersion),D50 ([2]; after 10 min dispersion),D90 ([2]; after 10 min dispersion),D10 value ([2]; after 30 min dispersion),D50 ([2]; after 30 min dispersion),D90 ([2]; after 30 min dispersion),"D10 value [2, 3]","D50 [2, 3]","D90 [2, 3]"
"O=NN([O-])C1CCCCC1.O=NN([O-])C1CCCCC1.[Cu+2] [Cu(HDO)2, Cu-salt of N′-hydroxy-N-cyclohexyldiazenium oxide]",around 30 ppm,14 μm,45 μm,108 μm,12 μm,41 μm,93 μm,16 μm,49 μm,140 μm
"[Cu+2].[O-]/N=[N+](\[O-])C1CCCCC1.[O-]/N=[N+](\[O-])C1CCCCC1 [Comparative Example, reference compound]",,2 μm,15 μm,79 μm,2 μm,12 μm,53 μm,3 μm,23 μm,306 μm
